Experimental data as given in patent US11548952B2, “Bispecific antibody against CD3 and CD20 in combination therapy for treating diffuse large B-cell lymphoma” (GENMAB A/S, priority 2020, dated 2023).
Where two headings read alike, the source gives them in different places.

Legend:
CD20 = biological target: T1, CD20 (Homo sapiens, UniProt P11836); conditions: bind to a different epitope; cited from earlier work
T1 sequence (P11836 1-297): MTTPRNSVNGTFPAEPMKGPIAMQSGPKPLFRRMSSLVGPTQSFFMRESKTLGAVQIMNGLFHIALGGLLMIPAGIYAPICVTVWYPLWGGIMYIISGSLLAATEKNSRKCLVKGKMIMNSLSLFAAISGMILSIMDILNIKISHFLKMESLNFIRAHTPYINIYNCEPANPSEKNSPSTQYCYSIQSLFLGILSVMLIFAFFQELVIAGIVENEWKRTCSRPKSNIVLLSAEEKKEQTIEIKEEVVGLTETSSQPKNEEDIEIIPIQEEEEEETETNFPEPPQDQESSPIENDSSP

[1] = tested on: R/R DLBCL eligible for ASCT; assay type: in vivo, human; conditions: in combination with R-DHAX/C, preliminary
Experimental: The trial is conducted in 2 parts: dose escalation (Part 1) and expansion (Part 2). Subjects participate in only one part. Both parts consist of a screening period, a treatment period, a safety follow-up period, and a survival follow-up period.
Epcoritamab is initially be administered in combination with R-DHAX/C in a 3-subject cohort. DLTs are evaluated during the first 28 days.
Dexamethasone (40 mg) is administered intravenously or orally on days 1-4 of a cycle once every 3 weeks (Q3W) for cycles 1-3. Cytarabine (2 g/m^2) is administered intravenously on day 1 (usually over 3 hours), repeated after 12 hours (may result in a second dose on day 2 depending on timing of first dose), once every 3 weeks (Q3W) for cycles 1-3. […] Carboplatin (for DHAC) (AUC=5 mg/ml/min; Calvert's formula) is administered intravenously on day 1 once every 3 weeks (Q3W) for cycles 1-3.
CRS is graded according to the ASTCT grading for CRS (Tables 6 and 7), and for treatment of CRS, subjects should receive supportive care. […]

[2] = tested on: CD20-expressing Raji-luc tumor cells; conditions: NOD-SCID mice injected with Raji-luc tumor cells and PBMCs; even in the presence of an excess of IgG1-RTX-FEAR; cited from earlier work

Substance: IgG1-CD20: anti-CD20 antibody of which the CD20 arm of epcoritamab is derived
- competition for CD20 binding (CD20): compete for CD20 binding

Substance: Epcoritamab: IgG1 bispecific CD3×CD20 antibody; heavy and light chain pairs SEQ ID NOs: 24 and 25, and 26 and 27; CAS 2134641-34-0
- responders observed ([1]; escalation phase, as of Sep. 8, 2021, 22 patients dosed in total): 4
- responders observed ([1]; expansion phase 48 mg, as of Sep. 8, 2021, response data not completely entered): 0
- tumor growth in the xenograft model [2]: effectively reduce tumor growth
